Laboratory results reported in EP0260606A2, “Medicament for curing neurotic disturbance or disorder comprising sialocylglycerolipid” (MECT CORPORATION, priority 1986, dated 1988).
Values joined by “and” are separate entries in the source; they are usually repeats but may differ in a detail not shown here. Equal values may be shown once. “Also recorded” adds a separate entry of the source. Marks after values point to notes of the source that are not given here.

Key:
[1] = test system: neuroblastoma cell Neuro2a; test: Effect on the neuroblastoma cell Neuro2a (formation and growth of axis-cylinder process); format: cell-based; settings: for Length of Axis-cylinder Process / Number of Axis-cylinder Process: average ± S.E.
Procedure: The nervous cell used in the test was neuroblastoma cell Neuro2a which is readily available and can be cultured in a relatively simple manner.
Neuro2a was floated on a culture medium containing fetal cattle serum (hereinafter referred to as FCS), the culture medium consisting of 90% of Dubecco's Modified Eagle's Medium (hereinafter referred to as MEM) and l0% of FCS and added with l00 U/ml of penicillin G and l00 µg/ml of streptomycin sulfate, and cultured in a carbon dioxide cultivator at 37°C in an air containing 5% of carbon dioxide. The containers used were 60 mm polystyrene dishes, and each of the containers was incubated with l to 2 × l0⁴ cells followed by culturing for 48 hours prior to the test. […] After the lapse of 24 hours and 48 hours, the increase in cells formed with axis-cylinder process, the increase in number of axis-cylinder processes and the elongation of the length of the axis-cylinder process were measured.
The test was conducted while using three dishes for each concentration of each test material.

[2] = test system: rat having its nigral depaminergic neuron destroyed; test: Methamphethamine-induced rotational movement after 6-hydroxydopamine lesion and fetal dopaminergic cell transplantation; format: in vivo; settings: for Average of Rotational Movement of Rats (Average + S.D.): group average; for Average of Rotational Movement of Rats (Average + S.D.) / Number of Rotational Movement of Rats: 30 mg/kg; for Number of Rotational Movement of Rats: individual rat, 30 mg/kg every day for two weeks from transplantation; for remedy of motor disturbance: result in words
Text: The nigral dopaminergic neuron of the brain of a rat was chemically destroyed by injecting a very small quantity of 6-hydroxydopamine to cause motor disturbance.
After the lapse of two weeks, a fetal brain dopaminergic cell was transplanted on the Nucleus caudatus of the rat brain to try to remedy the motor disturbance.
The nigral depaminergic neuron at the left side of the brain of a female Wister family rat aged 4-weeks (Body Weight: l00 g) was destroyed by injecting a very small quantity of 6-hydroxydopamine.
After two weeks from the destruction by the administration of the drug, portions of the […] containing dopamin cells (i.e. substantia nigra and the Tegmentum at the abdomen side) were extracted from the fetal rat brain of a fetal rat of l4 to l7 days age, cut finely, and treated with trypsin. Then, the extracted tissues were incubated at 37°C for 30 minutes, and the tissues were subjected to pipetting to form a suspension. 5 µl each of the suspensions were transplanted on two sites of the Nucleus caudatus of the destructed side, the total of l0 µl (containing about l0⁵ cells) being transplanted.
The rotational movements caused by administration of methamphethamine were examined at the time point before 2 weeks of the transplantation (- 2W), at the time point before one week of the transplantation (- lW) and at the time point after two weeks of the transplantation (2W). The number of rotational movements within one minute were counted at l0 minute intervals after six administrations of methamphethamine, and the total number of rotational movements counted for the six times was averaged to find the mean rotational movement. As controls, the numbers of rotational movements of the rats administered, respectively, with a ganglioside mixture and GM₁ ganglioside were counted.

[3] = in consideration of the molecular weights, 48 hour cultivation
[4] = - 1W (before transplantation and dosing)
[5] = - 2W (before transplantation and dosing)

CCCCCCCCCCCCCCOCC(COC1(C(=O)O)CC(O)C(NC(C)=O)C(C(O)C(O)CO)O1)OCCCCCCCCCCCCCC (centres unmarked) [Compound (I)]
Number of Cells Formed with Axis-cylinder Process ([1]; 24 hours, 0.01 µg/ml): 184
Ratio of Cells Formed with Axis-cylinder Process ([1]; 24 hours, 0.01 µg/ml): 44.7%
Total Number of Cells ([1]; 24 hours, 0.01 µg/ml): 412
Length of Axis-cylinder Process ([1]; 24 hours, 0.01 µg/ml): 107.5 ± 4.56 µm/cell
Number of Axis-cylinder Process ([1]; 24 hours, 0.01 µg/ml): 1.2 ± 0.03 per cell
Number of Cells Formed with Axis-cylinder Process ([1]; 24 hours, 0.1 µg/ml): 188
Ratio of Cells Formed with Axis-cylinder Process ([1]; 24 hours, 0.1 µg/ml): 50.9%
Total Number of Cells ([1]; 24 hours, 0.1 µg/ml): 369
Length of Axis-cylinder Process ([1]; 24 hours, 0.1 µg/ml): 111.4 ± 4.60 µm/cell
Number of Axis-cylinder Process ([1]; 24 hours, 0.1 µg/ml): 1.2 ± 0.03 per cell
Number of Cells Formed with Axis-cylinder Process ([1]; 24 hours, 1 µg/ml): 214
Ratio of Cells Formed with Axis-cylinder Process ([1]; 24 hours, 1 µg/ml): 63.5%
Total Number of Cells ([1]; 24 hours, 1 µg/ml): 337
Length of Axis-cylinder Process ([1]; 24 hours, 1 µg/ml): 158.7 ± 6.94 µm/cell
Number of Axis-cylinder Process ([1]; 24 hours, 1 µg/ml): 1.0 ± 0.02 per cell
Number of Cells Formed with Axis-cylinder Process ([1]; 24 hours, 10 µg/ml): U.C.
Total Number of Cells ([1]; 24 hours, 10 µg/ml): U.C.
Length of Axis-cylinder Process ([1]; 24 hours, 10 µg/ml): U.C.
Number of Axis-cylinder Process ([1]; 24 hours, 10 µg/ml): U.C.
Number of Cells Formed with Axis-cylinder Process ([1]; 48 hours, 0.01 µg/ml): 249
Ratio of Cells Formed with Axis-cylinder Process ([1]; 48 hours, 0.01 µg/ml): 50.7%
Total Number of Cells ([1]; 48 hours, 0.01 µg/ml): 491
Length of Axis-cylinder Process ([1]; 48 hours, 0.01 µg/ml): 117.1 ± 4.94 µm/cell
Number of Axis-cylinder Process ([1]; 48 hours, 0.01 µg/ml): 1.2 ± 0.03 per cell
Number of Cells Formed with Axis-cylinder Process ([1]; 48 hours, 0.1 µg/ml): 258
Ratio of Cells Formed with Axis-cylinder Process ([1]; 48 hours, 0.1 µg/ml): 55.6%
Total Number of Cells ([1]; 48 hours, 0.1 µg/ml): 464
Length of Axis-cylinder Process ([1]; 48 hours, 0.1 µg/ml): 128.8 ± 5.71 µm/cell
Number of Axis-cylinder Process ([1]; 48 hours, 0.1 µg/ml): 1.2 ± 0.03 per cell
Number of Cells Formed with Axis-cylinder Process ([1]; 48 hours, 1 µg/ml): 248
Ratio of Cells Formed with Axis-cylinder Process ([1]; 48 hours, 1 µg/ml): 61.4%
Total Number of Cells ([1]; 48 hours, 1 µg/ml): 404
Length of Axis-cylinder Process ([1]; 48 hours, 1 µg/ml): 154.7 ± 5.99 µm/cell
Number of Axis-cylinder Process ([1]; 48 hours, 1 µg/ml): 1.1 ± 0.03 per cell
Number of Cells Formed with Axis-cylinder Process ([1]; 48 hours, 10 µg/ml): U.C.
Total Number of Cells ([1]; 48 hours, 10 µg/ml): U.C.
Length of Axis-cylinder Process ([1]; 48 hours, 10 µg/ml): U.C.
Number of Axis-cylinder Process ([1]; 48 hours, 10 µg/ml): 1 U.C.
minimal effective concentration ([1]; Mus musculus, N2a, 48 hour cultivation): 0.01 µg/mL
activity relative to GM₁ [1, 3]: 500 times
activity relative to GQ1b [1, 3]: 300 times
effect on growth of the axis-cylinder process ([1]; result in words, compared with the control group): significant effect of promoting the growth of the axis-cylinder process; also recorded: extremely high activity for promoting growth or elongation of axis-cylinder process
Average of Rotational Movement of Rats (Average + S.D.) ([2]; 2W after transplantation): 2.8+4.0*
Average of Rotational Movement of Rats (Average + S.D.) [2, 4]: 12.3+3.8
Average of Rotational Movement of Rats (Average + S.D.) [2, 5]: 8.2+3.2
Number of Rotational Movement of Rats ([2]; 2W after transplantation): 5.3 and 3.2 and 5.8
Number of Rotational Movement of Rats [2, 4]: 17.4 and 12.2 and 8.4 and 11.0
Number of Rotational Movement of Rats [2, 5]: 12.2 and 5.8 and 5.4 and 9.5
remedy of motor disturbance [2]: effect of promoting the remedy of motor disturbance similar to the ganglioside mixtures
remedy of motor disturbance ([2]; listed as compound (I)): had a function of remedying the nerves similar to gangliosides
